Data from patent US9603849B2, “Uses of orvepitant” (NERRE THERAPEUTICS LIMITED, priority 2012, dated 2017).

Target: NK-1 receptor (Meriones unguiculatus, UniProt Q5DUB1)
Assay: GR73632-induced hindlimb scratching behaviour in the Mongolian gerbil
Type: in vivo
Conditions: all doses tested (from 0.1 to 10.0 mg/kg)
Excerpt: 5) Particularly the antipruritic effect of orvepitant maleate was determinated in GR73632-induced scratching behaviour in the Mongolian gerbil. According to this metholody the scratching behaviour was induced by GR73632 which is a specific agonist of the NK-1 receptor.
72 male Mongolian gerbils (58-78 g) after a minimum habituation period of 10 days prior to study commencement, were acclimatised to the procedure room in their home cages, with food and water available ad libitum. The day before the experiment was due to commence a 1 cm×1 cm squared area between the shoulder blades was shaved free of hair.
Habituation to the apparatus (custom made observation chambers; approximately 30×30 cm; 2 animals per observation) took place 30 minutes prior to induction of scratching behaviours using GR73632.
A 10 mg/kg stock solution of orvepitant maleate was made by dissolving 20 mg of orvepitant maleate Form 1 in 20 mls of vehicle (5% DMSO & 95% HPMC (0.5%)). This stock solution was serially diluted to prepare doses of 0.1, 0.3, 1.0, 3.0 or 10 mg/kg orvepitant maleate.
At T=−60 mins mongolian gerbils were dosed with orvepitant maleate (0.1, 0.3, 1.0, 3.0 or, 10 mg/kg p.o.). Gerbils were allocated to dosing groups based on a Latin square design. 30 Minutes later (T=−30 mins) gerbils were placed into the observation chamber for 30 minutes habituation. At T=0 Gerbils were then dosed with GR73632 (30 nmol/100 uL; i.d.) between the shoulder blades and their subsequent hindlimb scratching behaviour recorded using GeoVision surveillance software over a 30 minute period.
Playing back of the video served for counting scratching behaviour. […] Cumulative frequency and duration (secs) of scratching was scored in 5 min epochs. Treatment groups were randomised based on a Latin Square design. The experimenter was blinded to the treatment groups.
Repeated measures ANOVA followed by Planned comparison test using GraphPad Prism. (p<0.05 considered significant). Data were analysed by comparing treatment groups to control group at each time point.

Chain of NK-1 receptor (Q5DUB1 whole entry): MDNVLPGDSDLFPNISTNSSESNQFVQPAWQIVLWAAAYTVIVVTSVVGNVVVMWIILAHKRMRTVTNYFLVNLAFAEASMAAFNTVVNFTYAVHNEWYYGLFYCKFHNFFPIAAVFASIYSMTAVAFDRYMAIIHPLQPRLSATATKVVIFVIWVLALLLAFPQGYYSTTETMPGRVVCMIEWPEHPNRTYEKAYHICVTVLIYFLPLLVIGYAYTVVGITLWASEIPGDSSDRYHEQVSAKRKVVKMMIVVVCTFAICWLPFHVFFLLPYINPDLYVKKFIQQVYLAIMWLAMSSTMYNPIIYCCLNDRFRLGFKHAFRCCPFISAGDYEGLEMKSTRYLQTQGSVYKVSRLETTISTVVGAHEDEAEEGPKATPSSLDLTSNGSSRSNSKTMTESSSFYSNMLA

For `Cc1cc(F)ccc1[C@H]1C[C@@H](N2CCN3C(=O)CC[C@H]3C2)CCN1C(=O)N(C)[C@H](C)c1cc(C(F)(F)F)cc(C(F)(F)F)c1` [Orvepitant, 2-(R)-(4-Fluoro-2-methyl-phenyl)-4-(S)-((8aS)-6-oxo-hexahydro-pyrrolo[1,2-a]-pyrazin-2-yl)-piperidine-1-carboxylic acid [1-(R)-(3,5-bis-trifluoromethyl-phenyl)-ethyl]-methylamide], the “inhibition of GR73632 induced hindlimb scratching” value was “profound inhibition”.
